# Marks after values point to notes of the source that are not given here.
# Tested on: full thickness skin
# Test: Whole genome array of skin gene expression after topical DBP (time course)
# Type: in vivo, C57BL/6J mice
# Description: Mice: C57BL/6J female mice obtained from The Jackson Laboratory were used between 8 and 12 weeks of age.
# Treatment: Mice were untreated or treated topically on the dorsal side of each ear with […] of dibutylphthalate (DBP). At the designated time points after treatment, the animals were euthanized and the ears washed with 70% isopropanol. Full thickness skin was obtained from the dorsal side of both ears and placed immediately in liquid nitrogen. The time between euthanasia and placement of both skin samples in liquid nitrogen was less than 1 minute. Each sample for RNA extraction contained two dorsal ear skin samples obtained from a single mouse both of whose ears received the same treatment.
# RNA Extraction: While in liquid nitrogen, the skin was pulverized with a motorized mortar and pestle (CryoGrinder), transferred by inversion of the mortar directly into 1.5 ml cryogenic vials (Nalgene) and stored in liquid nitrogen until RNA extraction. Total RNA from both ears was extracted by homogenization (Pro200) in TRIzol Reagent (Invitrogen) with 7.5 μg of RNase-free glycogen added to the mixture, according to the manufacturer's directions. The RNA was purified on a solid phase RNeasy MinElute Cleanup column (Qiagen) and eluted with 17 μL of RNase-free water. The samples were stored at −20° C. until use.
# Quantification of RNA: RNA yields were quantified by UV absorption using a NanoDrop NG-1000 spectrophotometer, where 1 AU 260 equals 40 μg RNA/ml. Purity was estimated by the 260 and 280 nm absorbance ratio; values between 1.7 and 2.1 were considered acceptable.
# Assessment of RNA Quality: The quality of sample RNA was assessed using a RNA 6000 LABCHIP Kit on an Agilent 2100 Bioanalyzer. The Bioanalyzer determines the integrity/purity of the RNA samples and permits the screening of total and mRNA sample degradation and ribosomal RNA contamination. An RNA 6000 ladder was also loaded on a specified well and used as a reference for data analysis and a built-in quality control measure. The quality and integrity of the RNA was determined through visual inspection of each electropherogram. In general, only samples with a RIN (RNA integrity number) of 7 or greater, as determined by the Bioanalyzer, were used for gene arrays. This quality control analysis was repeated following the labeling procedure to ensure that the probes were efficiently labeled and had the correct size before hybridization to the chips. All samples that were run on genome wide arrays were obtained as independent duplicates from two individual mice.
# Microarray Data Interpretation: Gene expression was compared between untreated and treated total RNA samples. “Transition” data, which represent the change in expression level for a given gene, are presented as a “weighted difference.” Changes in gene expression level were considered to be significant when the adjusted p values were less than […]. The “gene expression signature” arbitrarily includes only those genes that were transcribed with a weighted increase of 2.0 or greater, which was sustained over the subsequent time points tested.
# The weighted difference is a metric that takes into account both the variability between different time-points and the variability between replicates at the same time-point. The calculations are performed for each time-point transition, i.e., 30 minutes vs. 1 hour, 1 hour vs. 2 hours, etc. There are two steps to the calculation: the calculation of a modified Euclidean difference between the two time-points, and the calculation of the Euclidean difference between the replicates within each time-point. The first measure is an unweighted difference, while the final metric given in the spreadsheet “weights” this difference by taking into account the second measure.
# In a Euclidean difference calculation, each data point is considered as a vector in a multi-dimensional space, and the actual straight-line distance between the data points is calculated. […]
compound,measurement,setting,value
"CCCCOC(=O)c1ccccc1C(=O)OCCCC [DBP, dibutylphthalate]",% Shared (DBP-induced genes also TLR-induced),15 min,64%
same,"DBP Unique genes, number",15 min,12
same,"TLR-Induced among DBP-induced genes, number",15 min,21^
same,"DBP-Induced genes (≧2x Increased Expression), number","15 min, early response genes",33*
same,Acot5 Change in Gene Expression (Weighted Difference),15 min to 30 min Transition,1.225
same,Akr1c18 Change in Gene Expression (Weighted Difference),15 min to 30 min Transition,−0.6119
same,Atp2c2 Change in Gene Expression (Weighted Difference),15 min to 30 min Transition,0.1754
same,Btg2 Change in Gene Expression (Weighted Difference),15 min to 30 min Transition,5.994
same,Ccr4 Change in Gene Expression (Weighted Difference),15 min to 30 min Transition,−0.287
same,Cdh10 Change in Gene Expression (Weighted Difference),15 min to 30 min Transition,0.1979
same,Cish Change in Gene Expression (Weighted Difference),15 min to 30 min Transition,1.725
same,Cox17 Change in Gene Expression (Weighted Difference),15 min to 30 min Transition,−0.6572
same,Cysltr1 Change in Gene Expression (Weighted Difference),15 min to 30 min Transition,−1.813
same,Egr1 Change in Gene Expression (Weighted Difference),15 min to 30 min Transition,4.967
same,Egr2 Change in Gene Expression (Weighted Difference),15 min to 30 min Transition,1.229
same,Frk Change in Gene Expression (Weighted Difference),15 min to 30 min Transition,−5.361
same,Gbp8 Change in Gene Expression (Weighted Difference),15 min to 30 min Transition,0.5698
same,Gem Change in Gene Expression (Weighted Difference),15 min to 30 min Transition,2.697
same,Gimap7 Change in Gene Expression (Weighted Difference),15 min to 30 min Transition,−0.2249
same,Ier3 Change in Gene Expression (Weighted Difference),15 min to 30 min Transition,12.73
same,Il10ra Change in Gene Expression (Weighted Difference),15 min to 30 min Transition,2.226
same,Jun Change in Gene Expression (Weighted Difference),15 min to 30 min Transition,1.717
same,Junb Change in Gene Expression (Weighted Difference),15 min to 30 min Transition,3.924
same,LOC100046066 Change in Gene Expression (Weighted Difference),15 min to 30 min Transition,−2.104
same,Madcam1 Change in Gene Expression (Weighted Difference),15 min to 30 min Transition,0.2824
same,Med17 Change in Gene Expression (Weighted Difference),15 min to 30 min Transition,−0.2295
same,Mkks Change in Gene Expression (Weighted Difference),15 min to 30 min Transition,−2.533
same,Mndal Change in Gene Expression (Weighted Difference),15 min to 30 min Transition,1.805
same,Myc Change in Gene Expression (Weighted Difference),15 min to 30 min Transition,2.987
same,N6amt2 Change in Gene Expression (Weighted Difference),15 min to 30 min Transition,−0.7998
same,Nr4a1 Change in Gene Expression (Weighted Difference),15 min to 30 min Transition,5.842
same,P2ry1 Change in Gene Expression (Weighted Difference),15 min to 30 min Transition,−2.116
same,Prf1 Change in Gene Expression (Weighted Difference),15 min to 30 min Transition,−0.05377
same,Sik1 Change in Gene Expression (Weighted Difference),15 min to 30 min Transition,2.597
same,Slc39a8 Change in Gene Expression (Weighted Difference),15 min to 30 min Transition,25.27
same,Tmed3 Change in Gene Expression (Weighted Difference),15 min to 30 min Transition,−0.4993
same,Zfp36 Change in Gene Expression (Weighted Difference),15 min to 30 min Transition,10.7
same,% Shared (DBP-induced genes also TLR-induced),30 min,64%
same,"DBP Unique genes, number",30 min,107
same,"DBP-Induced genes (≧2x Increased Expression), number",30 min,297
same,"TLR-Induced among DBP-induced genes, number",30 min,190^#
same,Acot5 Change in Gene Expression (Weighted Difference),30 min to 1 hr Transition,1.878
same,Akr1c18 Change in Gene Expression (Weighted Difference),30 min to 1 hr Transition,1.114
same,Atp2c2 Change in Gene Expression (Weighted Difference),30 min to 1 hr Transition,−0.008704
same,Btg2 Change in Gene Expression (Weighted Difference),30 min to 1 hr Transition,2.926
same,Ccr4 Change in Gene Expression (Weighted Difference),30 min to 1 hr Transition,0.2055
same,Cdh10 Change in Gene Expression (Weighted Difference),30 min to 1 hr Transition,0.2384
same,Cish Change in Gene Expression (Weighted Difference),30 min to 1 hr Transition,1.825
same,Cox17 Change in Gene Expression (Weighted Difference),30 min to 1 hr Transition,−0.02512
same,Cysltr1 Change in Gene Expression (Weighted Difference),30 min to 1 hr Transition,0.06681
same,Egr1 Change in Gene Expression (Weighted Difference),30 min to 1 hr Transition,5.495
same,Egr2 Change in Gene Expression (Weighted Difference),30 min to 1 hr Transition,2.326
same,Frk Change in Gene Expression (Weighted Difference),30 min to 1 hr Transition,3.985
same,Gbp8 Change in Gene Expression (Weighted Difference),30 min to 1 hr Transition,0.1048
same,Gem Change in Gene Expression (Weighted Difference),30 min to 1 hr Transition,3.044
same,Gimap7 Change in Gene Expression (Weighted Difference),30 min to 1 hr Transition,−0.004049
same,Ier3 Change in Gene Expression (Weighted Difference),30 min to 1 hr Transition,7.145
same,Il10ra Change in Gene Expression (Weighted Difference),30 min to 1 hr Transition,0.6152
same,Jun Change in Gene Expression (Weighted Difference),30 min to 1 hr Transition,0.7234
same,Junb Change in Gene Expression (Weighted Difference),30 min to 1 hr Transition,2.771
same,LOC100046066 Change in Gene Expression (Weighted Difference),30 min to 1 hr Transition,2.144
same,Madcam1 Change in Gene Expression (Weighted Difference),30 min to 1 hr Transition,0.046
same,Med17 Change in Gene Expression (Weighted Difference),30 min to 1 hr Transition,0.06201
same,Mkks Change in Gene Expression (Weighted Difference),30 min to 1 hr Transition,0.2811
same,Mndal Change in Gene Expression (Weighted Difference),30 min to 1 hr Transition,0.3272
same,Myc Change in Gene Expression (Weighted Difference),30 min to 1 hr Transition,1.895
same,N6amt2 Change in Gene Expression (Weighted Difference),30 min to 1 hr Transition,0.0833
same,Nr4a1 Change in Gene Expression (Weighted Difference),30 min to 1 hr Transition,1.556
same,P2ry1 Change in Gene Expression (Weighted Difference),30 min to 1 hr Transition,1.47
same,Prf1 Change in Gene Expression (Weighted Difference),30 min to 1 hr Transition,0.5182
same,Sik1 Change in Gene Expression (Weighted Difference),30 min to 1 hr Transition,0.7241
same,Slc39a8 Change in Gene Expression (Weighted Difference),30 min to 1 hr Transition,2.304
same,Tmed3 Change in Gene Expression (Weighted Difference),30 min to 1 hr Transition,−0.1953
same,Zfp36 Change in Gene Expression (Weighted Difference),30 min to 1 hr Transition,2.8
same,% Shared (DBP-induced genes also TLR-induced),1 hr,69%
same,"DBP Unique genes, number",1 hr,26
same,"DBP-Induced genes (≧2x Increased Expression), number",1 hr,83
same,"TLR-Induced among DBP-induced genes, number",1 hr,57^#
same,Acot5 Change in Gene Expression (Weighted Difference),1 hr to 2 hr Transition,12.15
same,Akr1c18 Change in Gene Expression (Weighted Difference),1 hr to 2 hr Transition,−0.2471
same,Atp2c2 Change in Gene Expression (Weighted Difference),1 hr to 2 hr Transition,0.331
same,Btg2 Change in Gene Expression (Weighted Difference),1 hr to 2 hr Transition,−0.01005
same,Ccr4 Change in Gene Expression (Weighted Difference),1 hr to 2 hr Transition,−0.03096
same,Cdh10 Change in Gene Expression (Weighted Difference),1 hr to 2 hr Transition,−0.1519
same,Cish Change in Gene Expression (Weighted Difference),1 hr to 2 hr Transition,0.9334
same,Cox17 Change in Gene Expression (Weighted Difference),1 hr to 2 hr Transition,0.1604
same,Cysltr1 Change in Gene Expression (Weighted Difference),1 hr to 2 hr Transition,−1.794
same,Egr1 Change in Gene Expression (Weighted Difference),1 hr to 2 hr Transition,−0.2127
same,Egr2 Change in Gene Expression (Weighted Difference),1 hr to 2 hr Transition,−0.1057
same,Frk Change in Gene Expression (Weighted Difference),1 hr to 2 hr Transition,−0.2672
same,Gbp8 Change in Gene Expression (Weighted Difference),1 hr to 2 hr Transition,−1.039
same,Gem Change in Gene Expression (Weighted Difference),1 hr to 2 hr Transition,0.6484
same,Gimap7 Change in Gene Expression (Weighted Difference),1 hr to 2 hr Transition,0.1331
same,Ier3 Change in Gene Expression (Weighted Difference),1 hr to 2 hr Transition,0.7786
same,Il10ra Change in Gene Expression (Weighted Difference),1 hr to 2 hr Transition,0.1326
same,Jun Change in Gene Expression (Weighted Difference),1 hr to 2 hr Transition,−0.001533
same,Junb Change in Gene Expression (Weighted Difference),1 hr to 2 hr Transition,−0.0754
same,LOC100046066 Change in Gene Expression (Weighted Difference),1 hr to 2 hr Transition,−0.8577
same,Madcam1 Change in Gene Expression (Weighted Difference),1 hr to 2 hr Transition,−0.04597
same,Med17 Change in Gene Expression (Weighted Difference),1 hr to 2 hr Transition,0.1073
same,Mkks Change in Gene Expression (Weighted Difference),1 hr to 2 hr Transition,−0.1657
same,Mndal Change in Gene Expression (Weighted Difference),1 hr to 2 hr Transition,0.5733
same,Myc Change in Gene Expression (Weighted Difference),1 hr to 2 hr Transition,−0.01449
same,N6amt2 Change in Gene Expression (Weighted Difference),1 hr to 2 hr Transition,−0.07791
same,Nr4a1 Change in Gene Expression (Weighted Difference),1 hr to 2 hr Transition,−0.4734
same,P2ry1 Change in Gene Expression (Weighted Difference),1 hr to 2 hr Transition,−0.5171
same,Prf1 Change in Gene Expression (Weighted Difference),1 hr to 2 hr Transition,−0.3117
same,Sik1 Change in Gene Expression (Weighted Difference),1 hr to 2 hr Transition,0.007769
same,Slc39a8 Change in Gene Expression (Weighted Difference),1 hr to 2 hr Transition,1.188
same,Tmed3 Change in Gene Expression (Weighted Difference),1 hr to 2 hr Transition,−0.2575
same,Zfp36 Change in Gene Expression (Weighted Difference),1 hr to 2 hr Transition,0.1025
same,% Shared (DBP-induced genes also TLR-induced),2 hr,63%

# From patent US20150307938A1, “METHOD TO IDENTIFY A NOVEL CLASS OF IMMUNOLOGIC ADJUVANTS” (Lancell, L.L.C., priority 2011, published 2015)
